# Reference: patent publication US5395757A, “Method for the hydrolysis of sugar compounds and reagent therefor” (Takara Shuzo Co., Ltd., priority 1991, dated 1995)
# Tested on: lacto-N-biosidase
# Experiment: Structural analysis of reaction products of lacto-N-biosidase (Example 3)
# Type: biochemical, Streptomyces sp 142
# Settings: about 100 nmol substrate, 0.6 mU enzyme, 60 h at 37° C., pH 6.0
# Experimental: To elucidate the reaction products of lacto-N-biosidase obtained by the method of example 1, the structures of the enzyme reaction products were analyzed in detail with the PA-oligosaccharide shown as formula VI below as the substrate. PA-oligosaccharide described by formula VI (about 100 nmol; Takara Shuzo Co.) mixed with lacto-N-biosidase (total, 0.6 mU) prepared as described in example 1 was digested for 60 h at 37° C. in a final volume of 360 μl containing 0.1M potassium phosphate buffer, pH 6.0. The reaction mixture was pyridylaminated by the method described in U.S. Pat. No. 4,975,533 and analyzed by HPLC with an amino-silica column. There were two peaks of PA-oligosaccharides: fractions 1 and 2. The elution position of fraction 1 was the same as that of the PA-oligosaccharide described by formula VII, and the elution position of fraction 2 was the same as that of PA-oligosaccharide described by formula VIII below. The amounts of these two products, calculated from the peak areas of fractions 1 and 2 , were identical to that of the PA-oligosaccharide substrate of formula VI.
row,Compound,linkage cleaved by the enzyme reaction
1,CC(=O)N[C@H]1[C@H](O[C@@H]([C@H](O)[C@H](CNc2ccccn2)NC(C)=O)[C@H](O)CO)O[C@H](CO)[C@@H](O[C@@H]2O[C@H](CO[C@H]3O[C@H](CO)[C@@H](O)[C@H](O)[C@@H]3O[C@@H]3O[C@H](CO)[C@@H](O[C@@H]4O[C@H](CO)[C@H](O)[C@H](O)[C@H]4O)[C@H](O)[C@H]3NC(C)=O)[C@@H](O)[C@H](O[C@H]3O[C@H](CO)[C@@H](O[C@@H]4O[C@H](CO)[C@@H](O)[C@H](O[C@@H]5O[C@H](CO)[C@H](O)[C@H](O)[C@H]5O)[C@H]4NC(C)=O)[C@H](O)[C@@H]3O[C@@H]3O[C@H](CO)[C@@H](O[C@@H]4O[C@H](CO)[C@H](O)[C@H](O)[C@H]4O)[C@H](O)[C@H]3NC(C)=O)[C@@H]2O)[C@@H]1O [formula VI],only lacto-N-biosidic linkage in the substrate was cleaved

# Tested on: lacto-N-biosidase and α-1,3/4 fucosidase
# Experiment: Digestion with a mixture of lacto-N-biosidase and α-1,3/4 fucosidase
# Type: biochemical
# Settings: lacto-N-biosidase plus α-1,3/4 fucosidase
# Excerpt: The method and the reagent of this invention can be used in studies done to identify type 1 structures in glycoconjugates, to distinguish type 1 oligosaccharides from type 2 oligosaccharides, and to elucidate the functions of lacto-N-biosyl residues in glycoconjugates. In particular, with its use, the Le^a structure can be easily distinguished from the Le^x structure by use of lacto-N-biosidase and α-1,3/4 fucosidase (Ogata-Arakawa et al., Arch. Biochem. Biophys. 181, 353, 1977; Scudder et al., J. Biol. Chem. 265, 16472, 1990; Sano et al., J. Biol. Chem. 267, 1522, 1992).
row,Compound,product obtained on treatment with the mixture of the two enzymes
1,CC(=O)N[C@H]1[C@H](O[C@H]2[C@@H](O)[C@@H](CO)O[C@@H](O[C@@H]([C@H](O)[C@@H](O)CNc3ccccn3)[C@H](O)CO)[C@@H]2O)O[C@H](CO)[C@@H](O[C@@H]2O[C@H](CO)[C@H](O)[C@H](O)[C@H]2O)[C@@H]1O[C@@H]1O[C@@H](C)[C@@H](O)[C@@H](O)[C@@H]1O [PA-lacto-N-fucopentaose III],PA-lacto-N-neotetraose was obtained
2,CC(=O)N[C@H]1[C@H](O[C@H]2[C@@H](O)[C@@H](CO)O[C@@H](O[C@@H]([C@H](O)[C@@H](O)CNc3ccccn3)[C@H](O)CO)[C@@H]2O)O[C@H](CO)[C@@H](O[C@@H]2O[C@@H](C)[C@@H](O)[C@@H](O)[C@@H]2O)[C@@H]1O[C@@H]1O[C@H](CO)[C@H](O)[C@H](O)[C@H]1O [PA-lacto-N-fucopentaose II],PA-lactose was obtained

# Tested on: lacto-N-biosidase
# Experiment: Substrate specificity of lacto-N-biosidase (hydrolysis of oligosaccharides, HPLC)
# Type: biochemical, Streptomyces sp 142
# Settings: not given
# Experimental: Lacto-N-biosidase was assayed by being incubated for 20 min with the compound described by formula II below at the concentration of 2 μM at 37° C. in 10 μl of 100 mM potassium phosphate buffer, pH 6.0.
# wherein PA represents a pyridylamino residue. […] Then 40 μl of 1% trifluoroacetic acid was added to the reaction mixture to stop the reaction. A portion containing 10 pmol of PA-oligosaccharides was then analyzed by HPLC with an amino-silica column (Palpak Type N column, 4.6×250 mm, Takara Shuzo), and detected by fluorescence with the excitation and emission wavelengths of 310 and 380 nm, respectively. Elution was at the flow rate of 1.0 ml/min at 40° C. with a 70:30 (v/v) mixture of acetonitrile and 0.2M triethylamine acetate buffer, pH 7.3. The degree of hydrolysis was calculated from the peak areas of the substrate and the product, PA-lactose, in comparison with the peak area of the corresponding standard PA-oligosaccharide. One unit of activity was defined as the amount of enzyme needed to release 1 μmol of PA-lactose per minute under the conditions described above.
row,Compound,products of hydrolysis by lacto-N-biosidase
1,CC(=O)N[C@H]1[C@H](O[C@@H]([C@H](O)[C@H](CNc2ccccn2)NC(C)=O)[C@H](O)CO)O[C@H](CO)[C@@H](O[C@@H]2O[C@H](CO[C@H]3O[C@H](CO)[C@@H](O)[C@H](O)[C@@H]3O[C@@H]3O[C@H](CO)[C@@H](O[C@@H]4O[C@H](CO)[C@H](O)[C@H](O)[C@H]4O)[C@H](O)[C@H]3NC(C)=O)[C@@H](O)[C@H](O[C@H]3O[C@H](CO)[C@@H](O[C@@H]4O[C@H](CO)[C@@H](O)[C@H](O[C@@H]5O[C@H](CO)[C@H](O)[C@H](O)[C@H]5O)[C@H]4NC(C)=O)[C@H](O)[C@@H]3O[C@@H]3O[C@H](CO)[C@@H](O[C@@H]4O[C@H](CO)[C@H](O)[C@H](O)[C@H]4O)[C@H](O)[C@H]3NC(C)=O)[C@@H]2O)[C@@H]1O [formula III],lacto-N-biose and the N-acetyllactosamine type of biantennary sugar chain
2,"CC(=O)N[C@H]1[C@H](Oc2ccc([N+](=O)[O-])cc2)O[C@H](CO)[C@@H](O)[C@@H]1O[C@@H]1O[C@H](CO)[C@H](O)[C@H](O)[C@H]1O [formula V, Galβ1--3GlcNAcβ1--p--nitrophenol]",lacto-N-biose and p-nitrophenol

# Same assay, conditions: oligosaccharides labelled with 2-aminopyridine
row,Compound,hydrolysis by lacto-N-biosidase
1,CC(=O)N[C@H]1[C@H](O[C@H]2[C@@H](O)[C@@H](CO)O[C@@H](O[C@@H]([C@H](O)[C@@H](O)CNc3ccccn3)[C@H](O)CO)[C@@H]2O)O[C@H](CO)[C@@H](O)[C@@H]1O[C@@H]1O[C@H](CO)[C@H](O)[C@H](O)[C@H]1O[C@@H]1O[C@@H](C)[C@@H](O)[C@@H](O)[C@@H]1O,did not hydrolyze
2,CC(=O)N[C@H]1[C@H](O[C@H]2[C@@H](O)[C@@H](CO)O[C@@H](O[C@@H]([C@H](O)[C@@H](O)CNc3ccccn3)[C@H](O)CO)[C@@H]2O)O[C@H](CO)[C@@H](O[C@@H]2O[C@H](CO)[C@H](O)[C@H](O)[C@H]2O)[C@@H]1O,did not hydrolyze
3,CC(=O)N[C@H]1[C@H](O[C@H]2[C@@H](O)[C@@H](CO)O[C@@H](O[C@@H]([C@H](O)[C@@H](O)CNc3ccccn3)[C@H](O)CO)[C@@H]2O)O[C@H](CO)[C@@H](O)[C@@H]1O[C@@H]1O[C@H](CO)[C@H](O)[C@H](O)[C@H]1O,specifically hydrolyzed
4,CC(=O)N[C@H]1[C@H](O[C@@H]2[C@H](O)[C@@H](O)[C@H](O[C@@H]([C@H](O)[C@@H](O)CNc3ccccn3)[C@H](O)CO)O[C@@H]2CO)O[C@H](CO)[C@H](O)[C@@H]1O[C@@H]1O[C@H](CO)[C@H](O)[C@H](O)[C@H]1O [asialo GM1 tetrasaccharide],did not hydrolyze
5,CC(=O)N[C@H]1[C@H](O[C@H]2[C@@H](O)[C@@H](CO)O[C@@H](O[C@H]3[C@H](O)[C@@H](O)C(O)O[C@@H]3CO)[C@@H]2O)O[C@H](CO)[C@@H](O)[C@@H]1O (stereo partly drawn) [lacto-N-triose],did not hydrolyze
6,poly-N-acetyllactosamine,did not hydrolyze
7,sialyl lacto-N-tetraose,did not hydrolyze
